Assay results: US10703756B2, “Pyrrolo[2,3-D]pyrimidinyl, pyrrolo[2,3-B]pyrazinyl, pyrrolo[2,3-B]pyridinyl acrylamides and epoxides thereof” (Pfizer Inc., priority 2015, dated 2020)

How the values were obtained:
[1] = tested on: IL-15 induced P-STAT5 in human PBMC; test: PBMC IL-15 Induced P-STAT5; type: cell-based; settings: human PBMC, IL-15 final 41 ng/mL; read-out: PBMC IL15_pSTAT5_IC50
Protocol: PBMC IL-15 Induced P-STAT5
Test compounds were serially diluted in DMSO, with further dilution of the compounds in RPMI 1640 medium (Invitrogen #72400) supplemented with 10 mM HEPES, pH 7.4, 1 mM sodium pyruvate, and Penicillin/Streptomycin (by adding 5 μL compound/DMSO in 120 μL Dulbecco's Phosphate-Buffered Saline (D-PBS, 1×), [DMSO]=4%, and mixing the solution by repeated pipetting, 6×). IL-15 was diluted to the concentration at 820 ng/mL in RPMI 1640 medium.
Frozen human PBMC (200-250 million cells/vial) was thawed at 37° C. The cells were transferred to 10 mL warm medium in a 50-mL conical tube, and centrifuged at 1,200 RPM at room temperature for 5 min. The supernatant was aspirated. Cells were suspended in 3 mL warm human plasma and incubated at 37° C. in a tissue culture incubator for 1.5 to 2 h. After adding 47 ml D-PBS (37° C.) to PBMC/FBS suspension, centrifuging at 1,200 RPM at room temperature for 5 min, and aspirating the supernatant, the cells were resuspended in 20 mL warm RPMI medium. Ninety μL of cell suspension were pipetted per well in a 96-well, deep-well, V-bottom plate, and the plate was incubated at 37° C. for 30 min. Five μL of compound were transferred to each well (final 0.2% DMSO), vortex gently and incubate at 37° C. for 15 min; 5 μL 4% DMSO/PBS were added to the control wells. After adding 5 μL 820 ng/mL of human IL-15 (final 41 ng/mL) to each well (5 μL PBS to the control wells), vortexing gently and incubating at 37° C. for 15 min, followed by 0.3 mL 1% paraformaldehyde/PBS (37° C.) to each well, and incubating the plate at room temperature for 15 min, the plates were centrifuged at 1,200 RPM (Beckman GS-6R or Sorvall Legend) at room temperature for 5 min, and the supernatant was aspirated using a 8-channel or 12-channel manifold. After adding 0.8 mL staining buffer per well, the plates were centrifuged at 1,200 RPM (Beckman GS-6R or Sorvall Legend) at room temperature for 5 min, and again the supernatant was aspirated using a 8-channel or 12-channel manifold. The plate was vortexed, and 0.35 mL 90% methanol/10% H2O (−20° C.) was added per well, and the plate incubated on ice for 20 min. After again adding 0.8 mL staining buffer per well, the plates were centrifuged at 1,200 RPM (Beckman GS-6R or Sorvall Legend) at room temperature for 5 min, and again the supernatant was aspirated using a 8-channel or 12-channel manifold, and then 0.8 mL Staining buffer was added per well. After once again adding 0.8 mL staining buffer per well, the plates were centrifuged at 1,200 RPM (Beckman GS-6R or Sorvall Legend) at room temperature for 5 min, and again the supernatant was aspirated using a 8-channel or 12-channel manifold. Then the plate was vortexed, and 250 μL/well of Alexa Fluor® 647 conjugated anti-STAT5 antibody ([…]; […]) was added, and the plate was incubated at 4° C. overnight in the dark. Samples of 250 μL/well were transferred to a 96-well U-bottom plate, and the FACS analysis was performed gating on total lymphocytes. Samples were analyzed using a BD Calibur™ or BD FACSCanto™ flow cytometer equipped with the BD High Throughput Sampler.

JAK3 enzyme [2] = molecular target: T1, JAK3 enzyme (Homo sapiens, UniProt P52333); test: JAK Caliper Enzyme Assay at 4 μM ATP; type: biochemical
T1 sequence (P52333 1-1124): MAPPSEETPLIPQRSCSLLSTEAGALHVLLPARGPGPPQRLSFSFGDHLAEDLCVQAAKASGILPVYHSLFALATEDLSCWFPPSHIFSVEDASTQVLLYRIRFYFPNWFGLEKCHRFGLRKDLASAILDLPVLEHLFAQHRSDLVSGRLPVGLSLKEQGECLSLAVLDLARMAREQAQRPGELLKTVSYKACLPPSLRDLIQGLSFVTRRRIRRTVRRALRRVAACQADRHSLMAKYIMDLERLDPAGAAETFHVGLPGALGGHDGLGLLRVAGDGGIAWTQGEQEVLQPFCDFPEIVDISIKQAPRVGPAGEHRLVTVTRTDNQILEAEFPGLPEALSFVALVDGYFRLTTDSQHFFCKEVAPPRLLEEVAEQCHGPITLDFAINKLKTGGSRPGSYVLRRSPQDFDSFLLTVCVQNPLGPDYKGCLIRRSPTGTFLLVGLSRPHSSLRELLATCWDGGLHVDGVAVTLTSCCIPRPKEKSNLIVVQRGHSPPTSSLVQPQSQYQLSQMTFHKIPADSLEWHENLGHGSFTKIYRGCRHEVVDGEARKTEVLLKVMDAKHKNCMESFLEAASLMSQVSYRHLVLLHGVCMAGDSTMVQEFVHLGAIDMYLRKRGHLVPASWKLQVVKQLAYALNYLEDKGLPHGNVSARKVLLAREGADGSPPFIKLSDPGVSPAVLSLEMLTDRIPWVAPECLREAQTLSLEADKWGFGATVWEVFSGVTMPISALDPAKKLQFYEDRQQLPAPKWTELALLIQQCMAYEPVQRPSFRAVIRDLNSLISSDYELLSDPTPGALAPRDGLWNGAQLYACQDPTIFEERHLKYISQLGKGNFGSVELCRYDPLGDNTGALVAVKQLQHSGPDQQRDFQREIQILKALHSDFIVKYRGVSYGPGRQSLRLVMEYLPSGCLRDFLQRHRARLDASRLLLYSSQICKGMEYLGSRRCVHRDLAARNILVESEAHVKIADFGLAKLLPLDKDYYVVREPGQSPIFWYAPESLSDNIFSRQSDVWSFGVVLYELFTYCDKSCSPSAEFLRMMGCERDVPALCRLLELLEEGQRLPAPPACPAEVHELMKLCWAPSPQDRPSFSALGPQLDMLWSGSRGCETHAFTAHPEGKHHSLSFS
Summary of the method: (§1)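 Test compounds were diluted in DMSO as an 11-point half-log series from a 600 μM top concentration (DMSO series, not final assay level). Enzyme amount and incubation time were set per enzyme prep to reach 20%-30% phosphorylation. Phosphorylated and unphosphorylated peptide were resolved by microfluidic separation.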

JAK3 enzyme [3] = molecular target: T1, JAK3 enzyme; test: JAK Caliper Enzyme Assay at 1 mM ATP; type: biochemical
Summary of the method: as §1

C=CC(=O)N1CCN(c2cnc3[nH]cc(C(=O)NC(CC)(CC)CO)c3n2)CC1(C)C [Example 163, 2-(4-acryloyl-3,3-dimethylpiperazin-1-yl)-N-[3-(hydroxymethyl)pentan-3-yl] 5H-pyrrolo[2,3-b]pyrazine-7-carboxamide]
IC50 [1]: 409 nM | IC50 (JAK3 enzyme [2]): 1.24 nM | IC50 (JAK3 enzyme [3]): 160 nM

C=CC(=O)N1CCC(Nc2cnc3[nH]cc(C(=O)NCc4nc(C)cc(C(F)(F)F)n4)c3n2)CC1 [Example 171, 2-[(1-acryloylpiperidin-4-yl)amino]-N-{[4-methyl-6-(trifluoromethyl)pyrimidin-2-yl]methyl}-5H-pyrrolo[2,3-b]pyrazine-7-carboxamide]
IC50 [1]: 947 nM | IC50 (JAK3 enzyme [2]): 0.928 nM | IC50 (JAK3 enzyme [3]): 55 nM

C=CC(=O)N1CCC(Nc2cnc3[nH]cc(C(=O)NCc4cc(C5CCC5)nn4C)c3n2)CC1 [Example 173, 2-[(1-acryloylpiperidin-4-yl)amino]-N-[(3-cyclobutyl-1-methyl-1H-pyrazol-5-yl)methyl]-5H-pyrrolo[2,3-b]pyrazine-7-carboxamide]
IC50 [1]: 1420 nM | IC50 (JAK3 enzyme [2]): 0.681 nM | IC50 (JAK3 enzyme [3]): 43 nM

C=CC(=O)N1CCC(Nc2cnc3[nH]cc(C(=O)NCc4nc5cc(F)ccc5o4)c3n2)CC1 [Example 177, 2-[(1-acryloylpiperidin-4-yl)amino]-N-[(5-fluoro-1,3-benzoxazol-2-yl)methyl]-5H-pyrrolo[2,3-b]pyrazine-7-carboxamide]
IC50 [1]: 420 nM | IC50 (JAK3 enzyme [2]): 0.626 nM | IC50 (JAK3 enzyme [3]): 25 nM

C=CC(=O)N1CCC(Nc2cnc3[nH]cc(C(=O)NCCc4nc5ccc(F)c(F)c5o4)c3n2)CC1 [Example 182, 2-[(1-acryloylpiperidin-4-yl)amino]-N-[2-(6,7-difluoro-1,3-benzoxazol-2-yl)ethyl]-5H-pyrrolo[2,3-b]pyrazine-7-carboxamide]
IC50 [1]: > 10000 nM | IC50 (JAK3 enzyme [2]): 2.44 nM | IC50 (JAK3 enzyme [3]): 165 nM

C=CC(=O)N1CCC(Nc2cnc3[nH]cc(C(=O)NCc4ccc(-n5cccn5)cc4)c3n2)CC1 [Example 183, 2-[(1-acryloylpiperidin-4-yl)amino]-N-[4-(1H-pyrazol-1-yl)benzyl]-5H-pyrrolo[2,3-b]pyrazine-7-carboxamide]
IC50 [1]: 1590 nM | IC50 (JAK3 enzyme [2]): 1.03 nM | IC50 (JAK3 enzyme [3]): 41 nM

C=CC(=O)N1CCC(Nc2cnc3[nH]cc(C(=O)NCc4ccc(CC)c(C)n4)c3n2)CC1 [Example 184, 2-[(1-acryloylpiperidin-4-yl)amino]-N-[(5-ethyl-6-methylpyridin-2-yl)methyl]-5H-pyrrolo[2,3-b]pyrazine-7-carboxamide]
IC50 [1]: 1190 nM | IC50 (JAK3 enzyme [2]): 1.39 nM | IC50 (JAK3 enzyme [3]): 68 nM

C=CC(=O)N1CCC(Nc2cnc3[nH]cc(C(=O)NCc4cnn(-c5cccc(F)c5)c4)c3n2)CC1 [Example 192, 2-[(1-acryloylpiperidin-4-yl)amino]-N-{[1-(3-fluorophenyl)-1H-pyrazol-4-yl]methyl}-5H-pyrrolo[2,3-b]pyrazine-7-carboxamide]
IC50 [1]: 907 nM | IC50 (JAK3 enzyme [2]): 0.627 nM | IC50 (JAK3 enzyme [3]): 29 nM

C=CC(=O)N1CCC(Oc2cnc3[nH]cc(C(=O)NCC4CC(F)(F)C4)c3n2)CC1 [Example 197, 2-[(1-acryloylpiperidin-4-yl)oxy]-N-[(3,3-difluorocyclobutyl)methyl]-5H-pyrrolo[2,3-b]pyrazine-7-carboxamide]
IC50 [1]: 706 nM | IC50 (JAK3 enzyme [2]): 0.788 nM | IC50 (JAK3 enzyme [3]): 147 nM

C=CC(=O)N1CCC(Oc2cnc3[nH]cc(C(=O)NCC4(O)CCC4)c3n2)CC1 [Example 203, 2-[(1-acryloylpiperidin-4-yl)oxy]-N-[(1-hydroxycyclobutyl)methyl]-5H-pyrrolo[2,3-b]pyrazine-7-carboxamide]
IC50 [1]: 4460 nM | IC50 (JAK3 enzyme [2]): 2.82 nM | IC50 (JAK3 enzyme [3]): 370 nM

C=CC(=O)N1CCC(Oc2cnc3[nH]cc(C(=O)N[C@H]4CC[C@H](F)C4)c3n2)CC1 [Example 210, 2-[(1-acryloylpiperidin-4-yl)oxy]-N-[(1S,3S)-3-fluorocyclopentyl]-5H-pyrrolo[2,3-b]pyrazine-7-carboxamide]
IC50 [1]: 325 nM | IC50 (JAK3 enzyme [2]): 0.435 nM | IC50 (JAK3 enzyme [3]): 54 nM

C=CC(=O)N1CCC(Oc2cnc3[nH]cc(C(=O)NC4CC(F)(F)C4)c3n2)CC1 [Example 212, 2-[(1-acryloylpiperidin-4-yl)oxy]-N-(3,3-difluorocyclobutyl)-5H-pyrrolo[2,3-b]pyrazine-7-carboxamide]
IC50 [1]: 1340 nM | IC50 (JAK3 enzyme [2]): 0.922 nM | IC50 (JAK3 enzyme [3]): 328 nM

C=CC(=O)N1CCC(Oc2cnc3[nH]cc(C(=O)NCC(C)(F)F)c3n2)CC1 [Example 215, 2-[(1-acryloylpiperidin-4-yl)oxy]-N-(2,2-difluoropropyl)-5H-pyrrolo[2,3-b]pyrazine-7-carboxamide]
IC50 [1]: 619 nM | IC50 (JAK3 enzyme [2]): 0.782 nM | IC50 (JAK3 enzyme [3]): 97 nM

C=CC(=O)N1CCC(Oc2cnc3[nH]cc(C(=O)N[C@@H](C(C)C)[C@H](O)C(F)(F)F)c3n2)CC1 [Example 217, 2-[(1-acryloylpiperidin-4-yl)Oxy]-N-[(2S,3S)-1,1,1-trifluoro-2-hydroxy-4-methylpentan-3-yl]-5H-pyrrolo[2,3-b]pyrazine-7-carboxamide]
IC50 [1]: 2090 nM | IC50 (JAK3 enzyme [2]): 1.97 nM | IC50 (JAK3 enzyme [3]): 272 nM

C=CC(=O)N1CCC(Oc2cnc3[nH]cc(C(=O)NCCCC#N)c3n2)CC1 [Example 218, 2-[(1-acryloylpiperidin-4-yl)oxy]-N-(3-cyanopropyl)-5H-pyrrolo[2,3-b]pyrazine-7-carboxamide]
IC50 [1]: 1200 nM | IC50 (JAK3 enzyme [2]): 0.627 nM | IC50 (JAK3 enzyme [3]): 105 nM

C=CC(=O)N1C[C@H](Nc2cnc3[nH]cc(C(=O)NCCOC)c3n2)[C@](C)(C#N)C1 [Example 245, 2-{[(3R,4R)-1-acryloyl-4-cyano-4-methylpyrrolidin-3-yl]amino}-N-(2-methoxyethyl)-5H-pyrrolo[2,3-b]pyrazine-7-carboxamide]
IC50 [1]: > 10000 nM | IC50 (JAK3 enzyme [2]): 1.77 nM | IC50 (JAK3 enzyme [3]): 297 nM
